In patent US4057530A, “2-Phenyl-indole derivatives and process for preparing the same” (priority 1974, dated 1977):

How the values were obtained:
[1] = Static thermostability of stabilized resin, GARDNER Scale Comparator, Compound B; conditions: 210° C
Procedure: (§1) The stabilizing power of the substances of the invention was studied from two points of view:
(§2) These studies were performed with six different formulae of vinyl resins (hereinafter referred to as Compounds).
(§3) The different compounds were mixed and calendered in a mixer of which the cylinders were heated to 160° C. The rigid sheets so obtained were then heated in an oven to a temperature between 180° C and 215° C, until incipient carbonization.
(§4) A stove with rotating drums, ventilated and equipped with a thermostat was used for this operation. In the trials described hereunder, the behaviour of a sheet containing the stabilizer to be tested was compared to that of a sheet of the same formula but containing 2-phenyl-indole as stabilizer.
1. The colouration of the sheets, of which samples were removed from the stove at fixed intervals was compared to a standard scale of colouration, known as the GARDNER Scale, and expressed in terms of the reference figures of the GARDNER Scale.
Comparisons were made with a GARDNER Scale Comparator which contains 18 filters of coloured glass and which offers the possibility of observing by transparency and in a limited field of view both the sheet and the reference filters.
Compound B was used and the sheets obtained presented the following characteristics: […]

[2] = Static thermostability of stabilized resin, simplified method (GARDNER sub-scale), Compound C; conditions: 210° C
Procedure: as §1, §2, §3, §4
(§5) 2. It is also possible to use a simplified method which is more rapid and with which valid results are also obtained: a reference scale is drawn up with sheets of thermally treated polyvinyl chloride, of which the colourations have been definitely determined in GARDNER degrees as above. A GARDNER sub-scale is thus obtained in polyvinyl chloride sheets which can be directly compared to the sheets to be tested without using the comparator.

[3] = Sticking of the stabilized material; conditions: cylinders at 210° C, 3 min mixing / 3 min rest
Procedure: Compounds Nos. 609 and 675 were placed in a mixer of the type previously used for studying static thermostability with cylinders at a fixed temperature of 210° C.
They were submitted to alternate periods of 3 minutes of mixing and 3 minutes of rest.

[4] = Static thermostability of stabilized resin, simplified method (GARDNER sub-scale), Compound E; conditions: 185° C
Procedure: as §1, §2, §3, §4, §5

[5] = Sublimation of the stabilizers; assay type: physicochemical; conditions: 120° C, 15 Torr, 150 min
From the text: A sample of the substance to be tested was introduced into a test tube and heated under reduced pressure. The fraction of sublimated substance was recovered on a mobile cold wall.
After a certain period of time, the sublimated substance was weighed and the result expressed as a percentage of the weight of the starting-material.
The results obtained can only be of relative value, enabling a comparison to be made between two products tested under the same conditions.
Operating conditions (chosen at random).
Temperature of heating 120° C
Temperature of the cold wall
Duration of heating 150 minutes

[6] = Acute toxicity by oral route in mice (LD50); assay type: in vivo; conditions: mouse, in vivo, gummy suspension
Procedure: (§6) The study of the acute toxicity of the stabilizers listed below was carried out by determining the dose of substance which provoked the death of 50% of the treated animals (LD50). A gummy suspension of the substance under study was administered by oral route to groups of at least ten mice and the following results were observed: […]

mice = assay: Acute toxicity by oral route in mice (LD50); assay type: in vivo; conditions: LD50 study
Procedure: as §6

[7] = Thermostability of the stabilizers: thermogravimetric analysis; assay type: physicochemical
Procedure: The thermostability of Stabilizer 8 and that of 2-phenyl-indole were studied by differential thermoanalysis and by thermogravimetric analysis.
This analysis necessitated two series of trials carried out under air and under inert gas (Argon) in order to eliminate any possible effect of oxygen. The results obtained were identical.
The temperature increase rate was 80° C/hour. Thermograms were drawn up under air for both 2-phenyl-indole (i) and for Stabilizer 8 (ii) and enabled the following conclusion to be drawn: […]

[8] = assay type: physicochemical
From the text: The thermostability of Stabilizer 8 and that of 2-phenyl-indole were studied by differential thermoanalysis and by thermogravimetric analysis. […] Diagrams were made out for 2-phenyl-indole (i) and Compound 8 (ii) and enabled the following conclusions to be drawn: […]

[9] = Dynamic thermostability of stabilized resin on a plastograph, Compound C; conditions: Compounds C and F, 190° C
Procedure: The dynamic thermostability of resins containing respectively 2-(4'-dodecyloxy-phenyl)-indole and 2-phenyl-indole as stabilizers was compared by using the Compounds numbered hereunder:
No. 609: Compound C with 2-phenyl-indole as Stabilizer
No. 675: Compound C with Stabilizer 8
The tests were performed on a plastograph, working at a temperature of 190° C, turning at a speed of 60 r.p.m. and containing a charge of 30 g of gelled material.
Two curves were drawn namely:
a decomposition curve giving the value of the resistant torque (m kg) in relation to time.
From this curve, two important results were obtained: the minimal resistant torque and the time of decomposition.
a curve giving the self-heating time in relation to temperature.
The self-heating time is defined by the moment when the temperature of the sheet exceeds the temperature of the plastograph (190° C).

[10] = Static thermostability of stabilized resin, simplified method (GARDNER sub-scale), Compound D; conditions: 185° C
Procedure: as §1, §2, §3, §4, §5

CCCCCCCCCCCCOc1ccc(-c2cc3ccccc3[nH]2)cc1 [Stabilizer 8, 2-(4'-dodecyloxy-phenyl)-indole]
Colouration of sheet (GARDNER Scale) ([1]; 0 min): 1 GARDNER degrees
Colouration of sheet (GARDNER Scale) ([1]; 3 min): 1 GARDNER degrees
Colouration of sheet (GARDNER Scale) ([1]; 6 min): 2 GARDNER degrees
Colouration of sheet (GARDNER Scale) ([1]; 9 min): 3 GARDNER degrees
Colouration of sheet (GARDNER Scale) ([1]; 12 min): 3 GARDNER degrees
Colouration of sheet (GARDNER Scale) ([1]; 15 min): 5 GARDNER degrees
Colouration of sheet (GARDNER Scale) ([1]; 18 min): 7 GARDNER degrees
Colouration of sheet (GARDNER Scale) ([1]; 21 min): 11 GARDNER degrees
Static thermostability compared with 2-phenyl-indole ([1]; 21 min): clearly superior to 2-phenyl-indole
Thickness of sheet ([1]; after 21 min): 1.30 mm
State of sheet ([1]; after 24 min): burnt
Colouration of sheet (GARDNER sub-scale) ([2]; 0 min): 1 GARDNER degrees
Colouration of sheet (GARDNER sub-scale) ([2]; 10 min): 1.5 GARDNER degrees
Colouration of sheet (GARDNER sub-scale) ([2]; 20 min): 2 GARDNER degrees
Colouration of sheet (GARDNER sub-scale) ([2]; 30 min): 2.5 GARDNER degrees
Colouration of sheet (GARDNER sub-scale) ([2]; 40 min): < 3 GARDNER degrees
Colouration of sheet (GARDNER sub-scale) ([2]; 50 min): 3 GARDNER degrees
Colouration of sheet (GARDNER sub-scale) ([2]; 55 min): 3 GARDNER degrees
Colouration of sheet (GARDNER sub-scale) ([2]; 60 min): 3.5 GARDNER degrees
Static thermostability compared with 2-phenyl-indole ([2]; after 60 min): superior as a stabilizer to 2-phenyl-indole
Sticking of the stabilized material [3]: comparable
Colouration of sheet (GARDNER sub-scale) ([4]; 0 min): < 1 GARDNER degrees
Colouration of sheet (GARDNER sub-scale) ([4]; 10 min): < 1 GARDNER degrees
Colouration of sheet (GARDNER sub-scale) ([4]; 20 min): < 2 GARDNER degrees
Colouration of sheet (GARDNER sub-scale) ([4]; 30 min): < 3 GARDNER degrees
Sublimation relative to 2-phenyl-indole [5]: forty times less than that of 2-phenyl-indole
Percentage of sublimated substance ([5]; cold wall 13° C): 0.6%
LD50 [6]: > 5000 mg/kg
Toxic symptoms (mice): none
Start of weight loss ([7]; 80° C/hour, under air): about 295 °C
Thermostability of the stabilizer compared with 2-phenyl-indole ([7]; thermogravimetric analysis and differential thermoanalysis): greater thermostability than 2-phenyl-indole
Melting temperature [8]: 203 °C
Start of decomposition ([8]; 2° C/minute): 300 °C
Dynamic thermostability compared with 2-phenyl-indole [9]: slight superiority over 2-phenyl-indole
Colouration given to the co-polymer [10]: less yellow-coloured than that containing 2-phenyl-indole
Static thermostability compared with 2-phenyl-indole [10]: superior to 2-phenyl-indole
Colouration of sheet (GARDNER sub-scale) ([10]; 0 min): < 1 GARDNER degrees
Colouration of sheet (GARDNER sub-scale) ([10]; 10 min): < 2 GARDNER degrees
Colouration of sheet (GARDNER sub-scale) ([10]; 20 min): 2 GARDNER degrees
Colouration of sheet (GARDNER sub-scale) ([10]; 30 min): < 3 GARDNER degrees
